In patent US20240246941A1, “SUBSTITUTED 4-(3-AMINOPROP-1-YL)AMINOQUINOLINE ANALOGS AS MODULATORS OF MELANOMA-ASSOCIATED ANTIGEN 11 UBIQUITIN LIGASE” (ST. JUDE CHILDREN'S RESEARCH HOSPITAL, INC., priority 2020, published 2024):

Target: MAGE-A11:PCF11 (Homo sapiens (Human), UniProt P43364)
Assay: TR-FRET single point screening at 15 μM
Assay type: binding
Set-up: unit not given here
Procedure, shortened: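 Single-point screen at 15 μM (0.25% DMSO) measuring disruption of GST-MAGEA11 (5 nM) binding to FAM-PCF11_4 peptide (200 nM) detected by Tb-anti-GST (5 nM). Buffer 50 mM Tris pH 7.5, 20 mM MgCl2, 0.1 mg/ml BSA, 1 mM DTT; 90 min at ~25 °C; 520/490 nm ratio converted to % inhibition versus controls.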

[1] = single point TR-FRET screening of quinoline compounds against MAGE-A11:PCF11, 15 μM
[2] = single point TR-FRET screening at 15 μM against MAGE-A11:PCF11

MAGE-A11:PCF11, sequence (P43364 218-429): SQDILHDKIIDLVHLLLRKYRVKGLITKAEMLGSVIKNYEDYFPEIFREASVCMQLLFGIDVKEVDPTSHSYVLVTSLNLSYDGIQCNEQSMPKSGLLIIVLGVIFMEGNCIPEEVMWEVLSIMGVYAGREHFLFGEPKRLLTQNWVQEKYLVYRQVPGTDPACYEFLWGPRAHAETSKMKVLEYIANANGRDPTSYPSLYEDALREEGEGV

| Compound | TR-FRET signal [1] | TR-FRET signal [2] |
| --- | --- | --- |
| CCCN(CCCNc1ccnc2cc(C(F)(F)F)ccc12)CCOCc1ccccc1 [SJ000521011] | 25.82 | – |
| CCCN(CCCNc1ccnc2cc(C(F)(F)F)ccc12)Cc1ccc(OC)c(F)c1 [SJ000521013] | 21.76 | – |
| CCCN(CCCNc1ccnc2cc(C(F)(F)F)ccc12)Cc1cc(F)ccc1C [SJ000521014] | 20.64 | – |
| CCCN(CCCNc1ccnc2cc(C(F)(F)F)ccc12)Cc1ccc(Cl)c(C(F)(F)F)c1 [SJ000521015] | 11.04 | – |
| Cn1cccc1CNCCCNc1ccnc2cc(Cl)ccc12 [SJ000521019] | 18.96 | – |
| Cn1cc(CNCCCNc2ccnc3cc(Cl)ccc23)c2ccccc21 [SJ000521020] | 18.47 | – |
| COC(=O)CCCCCNCCCNc1ccnc2cc(Cl)ccc12 [SJ000521021] | 39.12 | – |
| Clc1ccc2c(NCCCNCc3nccs3)ccnc2c1 [SJ000521023] | 4.988 | – |
| CC(C)(C)CCNCCCNc1ccnc2cc(Cl)ccc12 [SJ000521026] | 9.225 | – |
| CCCCNCCCNc1ccnc2cc(Cl)ccc12 [SJ000521027] | 8.454 | – |
| Clc1ccc2c(NCCCNCc3cc(Br)cs3)ccnc2c1 [SJ000521028] | 22.11 | – |
| Clc1ccc2c(NCCCNCc3cc4ccccc4o3)ccnc2c1 [SJ000521029] | 17.91 | – |
| Clc1ccc2c(NCCCNCc3cc4ccccc4s3)ccnc2c1 [SJ000521032] | 30.13 | – |
| Clc1ccc2c(NCCCNCc3csc4ccccc34)ccnc2c1 [SJ000521033] | 33.38 | – |
| Clc1ccc2c(NCCCNCc3nc4ccccc4s3)ccnc2c1 [SJ000521034] | 4.695 | – |
| Clc1ccc2c(NCCCNCc3cncc(Br)c3)ccnc2c1 [SJ000521037] | 7.014 | – |
| Clc1ccc2c(NCCCNCC3CCOC3)ccnc2c1 (stereo not drawn) [SJ000521038] | 0.4026 | – |
| Cn1ccnc1CNCCCNc1ccnc2cc(Cl)ccc12 [SJ000521040] | 1.449 | – |
| Cn1cccc1CNCCCNc1ccnc2cc(C(F)(F)F)ccc12 [SJ000521041] | −6.879 | – |
| FC(F)(F)c1ccc2c(NCCCNCc3cccnc3)ccnc2c1 [SJ000521042] | 15.04 | – |
| Cn1cc(CNCCCNc2ccnc3cc(C(F)(F)F)ccc23)c2ccccc21 [SJ000521043] | 29.11 | – |

| Compound | TR-FRET signal [1] | TR-FRET signal [2] |
| --- | --- | --- |
| COC(=O)CCCCCNCCCNc1ccnc2cc(C(F)(F)F)ccc12 [SJ000521044] | 19.59 | – |
| FC(F)(F)c1ccc2c(NCCCNCc3nccs3)ccnc2c1 [SJ000521046] | 7.779 | – |
| CC(C)(C)CCNCCCNc1ccnc2cc(C(F)(F)F)ccc12 [SJ000521053] | 27.36 | – |
| CCCCNCCCNc1ccnc2cc(C(F)(F)F)ccc12 [SJ000521055] | 18.54 | – |
| FC(F)(F)c1ccc2c(NCCCNCc3cc(Br)cs3)ccnc2c1 [SJ000521056] | 32.72 | – |
| FC(F)(F)c1ccc2c(NCCCNCc3cc4ccccc4o3)ccnc2c1 [SJ000521057] | 27.48 | – |
| FC(F)(F)c1ccc2c(NCCCNCc3cc4ccccc4s3)ccnc2c1 [SJ000521060] | 35.63 | – |
| FC(F)(F)c1ccc2c(NCCCNCc3csc4ccccc34)ccnc2c1 [SJ000521061] | 41.86 | – |
| FC(F)(F)c1ccc2c(NCCCNCc3nc4ccccc4s3)ccnc2c1 [SJ000521062] | 14.43 | – |
| FC(F)(F)c1ccc2c(NCCCNCC3CCOC3)ccnc2c1 (stereo not drawn) [SJ000521065] | 15.56 | – |
| Cn1ccnc1CNCCCNc1ccnc2cc(C(F)(F)F)ccc12 [SJ000521068] | 10.19 | – |
| Clc1ccc2c(NCCCN(Cc3ccccc3)Cc3ccc[nH]3)ccnc2c1 [SJ000522717] | 20.46 | – |
| Clc1ccc2c(NCCCCN(Cc3ccccc3)Cc3ccccc3)ccnc2c1 [SJ000522718] | – | 17.35 |
| Clc1ccc2c(NCCCN(Cc3ccccc3)Cc3ccc4c(c3)OCO4)ccnc2c1 [SJ000522719] | 9.001 | – |
| COc1ccc(CN(CCCNc2ccnc3cc(Cl)ccc23)Cc2ccccc2)cc1 [SJ000522720] | 11.78 | – |
| Fc1ccc(CN(CCCNc2ccnc3cc(Cl)ccc23)Cc2ccccc2)cc1 [SJ000522721] | 18.08 | – |
| COc1ccccc1CN(CCCNc1ccnc2cc(Cl)ccc12)Cc1ccccc1 [SJ000522722] | 4.43 | – |
| Clc1ccc2c(NCCCCN(Cc3ccccc3)Cc3ccc4c(c3)OCO4)ccnc2c1 [SJ000522723] | – | 16.51 |
| COc1ccc(CN(CCCCNc2ccnc3cc(Cl)ccc23)Cc2ccccc2)cc1 [SJ000522724] | – | 6.683 |
| Fc1ccc(CN(CCCCNc2ccnc3cc(Cl)ccc23)Cc2ccccc2)cc1 [SJ000522725] | – | 30.2 |
| COc1ccccc1CN(CCCCNc1ccnc2cc(Cl)ccc12)Cc1ccccc1 [SJ000522726] | – | 19.4 |

| Compound | TR-FRET signal [1] | TR-FRET signal [2] |
| --- | --- | --- |
| CN(C)c1ccc(CN(CCCCNc2ccnc3cc(Cl)ccc23)Cc2ccccc2)cc1 [SJ000522727] | – | 21.52 |
| COc1ccc(CN(CCCCNc2ccnc3cc(Cl)ccc23)Cc2ccccc2)cc1OC [SJ000522728] | – | 0.05797 |
| Clc1ccc2c(NCCCCN(CCCc3ccccc3)Cc3ccccc3)ccnc2c1 [SJ000522729] | – | 27.82 |
| CCCN(CCCNc1c2ccc(Cl)cc2nc2ccc(OC)cc12)CCCSC [SJ000522730] | 0.7867 | – |
| CCCN(CCCNc1c2ccc(Cl)cc2nc2ccc(OC)cc12)CCC(C)c1ccccc1 (stereo not drawn) [SJ000522731] | – | −121 |
| CCCN(CCCNc1c2ccc(Cl)cc2nc2ccc(OC)cc12)Cc1ccc2[nH]ccc2c1 [SJ000522732] | 39.47 | – |
| CCCN(CCCNc1c2ccc(Cl)cc2nc2ccc(OC)cc12)Cc1c(F)cccc1OC [SJ000522733] | – | −187.1 |
| CCCN(CCCNc1c2ccc(Cl)cc2nc2ccc(OC)cc12)Cc1c(F)c(F)c(F)c(F)c1F [SJ000522734] | −2.258 | – |
| CCCN(CCCNc1c2ccc(Cl)cc2nc2ccc(OC)cc12)Cc1ccc([N+](=O)[O-])s1 [SJ000522735] | – | −154.4 |
| CCCN(CCCNc1c2ccc(Cl)cc2nc2ccc(OC)cc12)Cc1cn(C(C)=O)c2ccccc12 [SJ000522736] | – | −192.4 |
| CCCN(CCCNc1c2ccc(Cl)cc2nc2ccc(OC)cc12)Cc1cc2ccccc2nc1Cl [SJ000522737] | −83.74 | – |
| CCCN(CCCNc1c2ccc(Cl)cc2nc2ccc(OC)cc12)Cc1ccc(Cl)c([N+](=O)[O-])c1 [SJ000522738] | −71.03 | – |
| CCCN(CCCNc1c2ccc(Cl)cc2nc2ccc(OC)cc12)Cc1cccc(C#N)c1 [SJ000522739] | – | −94.54 |
| CCCN(CCCNc1c2ccc(Cl)cc2nc2ccc(OC)cc12)Cc1ccc(-c2ccccc2)cc1 [SJ000522740] | −74.01 | – |
| CN(C)c1ccc(CN(CCCNc2ccnc3cc(Cl)ccc23)Cc2ccccc2)cc1 [SJ000522741] | 14.76 | – |
| COc1ccc(CN(CCCNc2ccnc3cc(Cl)ccc23)Cc2ccccc2)cc1OC [SJ000522742] | −0.5383 | – |
| CCCN(CCCNc1ccnc2cc(Cl)ccc12)Cc1ccccn1 [SJ000522743] | 1.313 | – |
| CCCN(CCCNc1ccnc2cc(Cl)ccc12)Cc1ccsc1 [SJ000522744] | 7.824 | – |
| CCCN(CCCNc1ccnc2cc(Cl)ccc12)Cc1ccccc1C(F)(F)F [SJ000522745] | −38.03 | – |
| CCCN(CCCNc1ccnc2cc(Cl)ccc12)Cc1ccc2[nH]ccc2c1 [SJ000522746] | 96.84 | – |
| CCCN(CCCNc1ccnc2cc(Cl)ccc12)Cc1ccccc1N [SJ000522747] | 15.43 | – |

| Compound | TR-FRET signal [1] | TR-FRET signal [2] |
| --- | --- | --- |
| CCCN(CCCNc1ccnc2cc(Cl)ccc12)Cc1c(F)c(F)c(F)c(F)c1F [SJ000522748] | 19.87 | – |
| CCCN(CCCNc1ccnc2cc(Cl)ccc12)Cc1c(C)cc(C)cc1C [SJ000522749] | 35.43 | – |
| CCCN(CCCNc1ccnc2cc(Cl)ccc12)Cc1ccc([N+](=O)[O-])s1 [SJ000522750] | 9.134 | – |
| CCCN(CCCNc1ccnc2cc(Cl)ccc12)CC1CCCCC1 [SJ000522751] | 15.63 | – |
| CCCN(CCCNc1ccnc2cc(Cl)ccc12)CC(CC)CC [SJ000522752] | 14.17 | – |
| CCCN(CCCNc1ccnc2cc(Cl)ccc12)Cc1ccc2c(c1)OCO2 [SJ000522753] | 18.75 | – |
| CCCCCN(CCC)CCCNc1ccnc2cc(Cl)ccc12 [SJ000522754] | 16.29 | – |
| CCCN(CCCNc1ccnc2cc(Cl)ccc12)Cc1c(C)n(C)n(-c2ccccc2)c1=O [SJ000522755] | 13.64 | – |
| CCCN(CCCNc1ccnc2cc(Cl)ccc12)Cc1ccc(OC)cc1 [SJ000522756] | 19.14 | – |
| CCCN(CCCNc1ccnc2cc(Cl)ccc12)Cc1ccccc1F [SJ000522757] | 21.99 | – |
| CCCN(CCCNc1ccnc2cc(Cl)ccc12)Cc1cccc(F)c1 [SJ000522758] | 27.42 | – |
| CCCN(CCCNc1ccnc2cc(Cl)ccc12)Cc1ccc(F)cc1 [SJ000522759] | 20.79 | – |
| CCCN(CCCNc1ccnc2cc(Cl)ccc12)Cc1cc2ccccc2nc1Cl [SJ000522760] | 12.8 | – |
| CCCN(CCCNc1ccnc2cc(Cl)ccc12)Cc1ccc(Cl)c([N+](=O)[O-])c1 [SJ000522761] | 16.95 | – |
| CCCN(CCCNc1ccnc2cc(Cl)ccc12)Cc1c2ccccc2cc2ccccc12 [SJ000522762] | 15.49 | – |
| CCCN(CCCNc1ccnc2cc(Cl)ccc12)Cc1cccc(C#N)c1 [SJ000522763] | 12.91 | – |
| COc1ccc2nc3cc(Cl)ccc3c(NCCCNCc3cccc(C)c3)c2c1 [SJ000522956] | −7.089 | – |
| COC(=O)c1ccc(CNCCCNc2c3ccc(Cl)cc3nc3ccc(OC)cc23)cc1 [SJ000522957] | – | −133 |
